We go through two molecules from patent US20150352075A1, “Treatment of Alzheimer's and Cognitive Impairment With Andrographolides” (INNOBIOSCIENCE, LLC, priority 2013, published 2015).

The test system of assay [1] is CA3-CA1 connections in hippocampal slices. Kind of assay: Electrophysiology (fEPSP, PPF, LTP, LTD) in Wt hippocampal slices. In kind it is cell-based, mice. The conditions noted are these: hippocampal slices, LFS. On the procedure: Slices were transferred to an experimental chamber (2 ml), superfused (3 ml/min, at 20-22° C.) with gassed ACSF and visualized by trans-illumination with a binocular microscope (MSZ-10, Nikon, Melville, N.Y.). […] The stimulation was in the Stratum Radiatum within 100-200 μm from the recording site. The paired pulse facilitation index was calculated by ((R2−R1)/R1), where R1 and R2 were the peak amplitudes of the first and second fEPSP respectively. To generate LTP we used Theta Burst Stimulation (TBS) consisting of 5 trains of stimulus with an inter-train interval of 20 s. Each train consisted of 10 bursts at 5 Hz and each burst having 4 pulses at 100 Hz. To generate LTD we used Low Frequency Stimulation (LFS) consisting in 900 paired pulses at 1 Hz. Recordings were filtered at 2.0-3.0 kHz, sampled at 4.0 kHz using an A/D converter, and stored with pClamp 10 (Molecular Devices). Evoked postsynaptic responses were analyzed off-line, using an analysis software (pClampfit, Molecular Devices), which allowed visual detection of events, computing only those events that exceeded and arbitrary threshold.

Assay [2] deals with Wnt/β-catenin pathway in hippocampal slices. Kind of assay: Wnt pathway mechanism in hippocampal slices (sFRP, Dkk-1, Dvl-3 mobility shift, time course). In kind it is cell-based, mice. The note with it: for time at which total levels of β-catenin increased: slices from 2 month-old wild-type mice, 5 μM ANDRO, Wnt3a conditioned medium or 10 μM 6-B10. On the procedure: Slice preparation. […] Transverse slices (250-300 μm) from the dorsal hippocampus were cut under oxygen-saturated cold artificial cerebrospinal fluid using a Vibroslice microtome (VSL, World Precision Instruments, Inc WPI, Sarasota, Fla.). After obtained, slices were incubated in ACSF for at least than one hour at room temperature, in order to stabilize activity. In every moment during dissection, slicing and experimentation slices were oxygenated with 95% oxygen-5% carbon dioxide.
Briefly, tissues were homogenized in RIPA buffer (10 mM Tris-Cl, pH 7.4, EDTA 5 mM, 1% NP-40, 1% sodium deoxycholate, and 1% SDS) supplemented with a protease inhibitor mixture (1 mM PMSF, 2 μg/mL aprotinin, 1 μg/mL pepstatin and 10 μg/mL benzamidine) and phosphatase inhibitors (25 mMNaF, 100 mM Na3VO4, 1 mM EDTA and 30 μM Na4P207) using a Potter homogenizator and then passed sequentially through different caliber syringes. […] Protein concentration was determined using the BCA Protein Assay Kit (Pierce). Samples were resolved by […] 10% SDS-PAGE and transferred to a PVDF membrane. The reactions were followed by incubation with anti-mouse, anti-goat or anti-rabbit IgG peroxidase conjugated (Pierce, Rockford, Ill.) and developed using an ECL kit (Western Lightning Plus ECL, PerkinElmer).

Assay [3] has as its system HEK293T cells. Nature of the assay: TOPflash/FOPflash luciferase reporter assay. In kind it is cell-based. On the procedure:
150,000 HEK293T cells were seeded in triplicate per condition and kept for 24 hours at 37° C. with 5% CO2. The cultures were transfected with TOPflash or FOPflash (400 ng), which are firefly-luciferase reporter DNA constructs (Milipore), using LipofectAMINE 2000 (Invitrogen). To control for transfection pRL-TK (10 ng) was included in all transfections. […] Values were normalized by the renilla value from the same well. To statistically compare treatments ANOVA was used.

For assay [4], the system named is Wnt target genes in cultured hippocampal neurons. Kind of assay: PCR array of Wnt target genes in hippocampal neurons. Type of assay: cell-based, rat. Here is the method: Primary culture of rat hippocampal neurons. […] PCR-ARRAY. RNA from hippocampal neurons was extracted using Trizol. Quantification and purity of RNA preparations were checked by absorbance using Nanodrop ND-2000. Only preparations with a 260/280 nm ratio ≧1.8, a 260/230 nm ratio ≧1.7 and no sign of RNA degradations, verified by agarose gel electrophoresis with Gel Red™ were used. Genomic DNA was degraded. Using RT2First-Strand cDNA Synthesis kit (SuperArray), 1 ng total RNA was reverse transcribed and then real-time PCR was performed by adding cDNA directly to PCR Master Mix, containing SYBR Green and ROX. The mixtures were then aliquoted into a 96-well PCR array plates, which profiles the expression of 84 Wnt target genes from rat. The PCR was run on ABI StepOnePlus, with 1 cycle of 10 min at 95° C. followed by 40 cycles of 15s at 95° C. and 1 min at 60° C. […] Treatment of neuronal cultures. Primary hippocampal cultures of neurons 14 DIV were washed twice in neurobasal medium and maintained for 1 hour. Next ANDRO (10 μM) and 6-BIO (10 μM) were added to different time periods.

In the case of `O=C1Nc2cc(Br)ccc2/C1=C1/Nc2ccccc2/C1=N\O` [6-B10, 6-bromoindirubin-3′-oxime, reference compound], in assay [1], the “induction of LTD” value was “complete inhibition of the induction of LTD”. Besides, the “speed of increase in GSK3β pSer-9 and decrease in pTyr-216” value in assay [2] (compared to Wnt-3a treatment) is on record as “faster”. Also, the “time at which total levels of β-catenin increased” value in assay [2] came out at 15 min. Moreover, in assay [3] (10 μM, 24 h), the FOPflash reporter activity result was “not in the FOPflash” and the TOPflash reporter activity entry was “significant increase in the TOPflash”. In assay [3] (HEK293T, TOPflash), the “increase of luciferase reporter over control” value was around 6 fold. Moreover, in assay [4], the Cdh-1 gene expression result is “does not by 6-B10”. In addition, in assay [4] (9 h, of the 86 genes analyzed), the “number of Wnt target genes specifically modulated” value amounted to 4 genes and the “number of modulated Wnt target genes shared by both treatments” value was determined as 4.

B1: Wnt-3a: conditioned medium of Wnt3a ligand, the canonical Wnt ligand (protein, UniProt P56704 19-352, looked up)
Protein Wnt-3a: SYPIWWSLAVGPQYSSLGSQPILCASIPGLVPKQLRFCRNYVEIMPSVAEGIKIGIQECQHQFRGRRWNCTTVHDSLAIFGPVLDKATRESAFVHAIASAGVAFAVTRSCAEGTAAICGCSSRHQGSPGKGWKWGGCSEDIEFGGMVSREFADARENRPDARSAMNRHNNEAGRQAIASHMHLKCKCHGLSGSCEVKTCWWSQPDFRAIGDFLKDKYDSASEMVVEKHRESRGWVETLRPRYTYFKVPTERDLVYYEASPNFCEPNPETGSFGTRDRTCNVSSHGIDGCDLLCCGRGHNARAERRREKCRCVFHWCCYVSCQECTRVYDVHTCK
modifications: conditioned medium
B1: the “inhibition of β-catenin accumulation by Wnt antagonists sFRP and Dkk-1” value in assay [2] (antagonist 15 min prior, 5 μM ANDRO or Wnt3a conditioned medium for 1 h) is listed as “inhibit the accumulation of β-catenin in the presence of Wnt3a”. Moreover, the “time at which total levels of β-catenin increased” value in assay [2] was determined as 45 min.
